Counter-ions that a name gives are not always drawn.
target: T1, human hNET (Homo sapiens, UniProt P23975); experiment: Norepinephrine (NE) uptake assay in MDCK-Net6 cells; type: cell-based; conditions: 1 μM test compound, [3H]NE uptake, read-out: % Inhibition @ 1 μM (hNET)
T1 construct: expressed in transfected cells; host or cells: MDCK-Net6 (MDCK cells, stably transfected)
Experimental: Cells were plated at 300,000/T75 flask and cells were split twice weekly. […] Cells were plated at 250,000 cells/T75 flask and split twice weekly.
Norepinephrine (NE) Uptake Assay
On day 1, cells were plated at 3,000 cells/well in growth medium and maintained in a cell incubator (37° C., 5% CO2). On day 2, growth medium was replaced with 200 μl of assay buffer (25 mM HEPES; 120 mM NaCl; 5 mM KCl; 2.5 mM CaCl2; 1.2 mM MgSO4; 2 mg/ml glucose (pH 7.4, 37° C.)) containing 0.2 mg/ml ascorbic acid and 10 μM pargyline. Plates containing cells with 200 μl of assay buffer were equilibrated for 10 minutes at 37° C. prior to addition of compounds. A stock solution of desipramine was prepared in DMSO (10 mM) and delivered to triplicate wells containing cells for a final test concentration of 1 μM. Data from these wells were used to define non-specific NE uptake (minimum NE uptake). Test compounds were prepared in DMSO (10 mM) and diluted in assay buffer according to test range (1 to 10,000 nM). Twenty-five microliters of assay buffer (maximum NE uptake) or test compound were added directly to triplicate wells containing cells in 200 μl of assay buffer. The cells in assay buffer with test compounds were incubated for 20 minutes at 37° C. […] The reaction was terminated by decanting the supernatant from the plate. The plates containing cells were washed twice with 200 μl assay buffer (37° C.) to remove free radioligand. The plates were then inverted, left to dry for 2 minutes, then reinverted and air-dried for an additional 10 minutes. The cells were lysed in 25 μl of 0.25 N NaOH solution (4° C.), placed on a shake table and vigorously shaken for 5 minutes. After cell lysis, 75 μl of scintillation cocktail was added to each well and the plates were sealed with film tape. The plates were returned to the shake table and vigorously shaken for a minimum of 10 minutes to ensure adequate partitioning of organic and aqueous solutions. The plates were counted in a Wallac Microbeta counter (PerkinElmer) to collect the raw cpm data.
For each experiment, a data stream of cpm values collected from the Wallac Microbeta counter was downloaded to a Microsoft Excel statistical application program. Calculations of EC50 values were made using the transformed-both-sides logistic dose response program written by Wyeth Biometrics Department.

T1 sequence (P23975 whole entry): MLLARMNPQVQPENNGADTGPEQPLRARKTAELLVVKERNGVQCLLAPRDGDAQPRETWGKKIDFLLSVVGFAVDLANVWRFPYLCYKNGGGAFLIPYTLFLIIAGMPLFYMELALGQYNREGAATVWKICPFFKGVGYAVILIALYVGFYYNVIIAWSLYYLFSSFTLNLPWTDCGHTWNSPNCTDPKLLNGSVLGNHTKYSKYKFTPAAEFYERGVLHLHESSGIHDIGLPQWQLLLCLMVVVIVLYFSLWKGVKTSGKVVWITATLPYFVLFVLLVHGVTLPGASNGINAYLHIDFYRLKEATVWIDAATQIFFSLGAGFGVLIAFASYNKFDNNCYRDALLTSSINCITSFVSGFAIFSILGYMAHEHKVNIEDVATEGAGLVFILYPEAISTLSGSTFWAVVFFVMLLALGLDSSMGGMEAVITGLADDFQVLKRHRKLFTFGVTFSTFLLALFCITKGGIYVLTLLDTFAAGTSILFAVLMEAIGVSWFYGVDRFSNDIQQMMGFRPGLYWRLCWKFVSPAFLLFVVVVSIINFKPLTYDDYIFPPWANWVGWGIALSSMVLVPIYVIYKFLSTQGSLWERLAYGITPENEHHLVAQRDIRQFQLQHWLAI

Compound | inhibition at 1 µM [%]
CN1CCN(CC(c2cccc(-c3ccc(Cl)c(Cl)c3)c2)C2(O)CCCCC2)CC1 (stereo not drawn) [Example 247, 1-[1-(3′,4′-dichloro-1,1′-biphenyl-3-yl)-2-(4-methylpiperazin-1-yl)ethyl]cyclohexanol dihydrochloride] | 49
OC1(C(CN2CCNCC2)c2cccc(-c3cccc(OC(F)(F)F)c3)c2)CCCCC1 (stereo not drawn) [Example 248, 1-{2-piperazin-1-yl-1-[3′-(trifluoromethoxy)-1,1′-biphenyl-3-yl]ethyl}cyclohexanol dihydrochloride] | 7
OC1(C(CN2CCNCC2)c2cccc(-c3ccc(C(F)(F)F)cc3)c2)CCCCC1 (stereo not drawn) [Example 249, 1-{2-piperazin-1-yl-1-[4′-(trifluoromethyl)-1,1′-biphenyl-3-yl]ethyl}cyclohexanol dihydrochloride] | 32
COc1ccc(-c2cccc(C(CN3CCNCC3)C3(O)CCCCC3)c2)cc1OC (stereo not drawn) [Example 250, 1-[1-(3′,4′-dimethoxy-1,1′-biphenyl-3-yl)-2-piperazin-1-ylethyl]cyclohexanol dihydrochloride] | 15
COc1ccc(C(CN2CCNCC2)C2(O)CCCCC2)cc1-c1cccc(OC(F)(F)F)c1 (stereo not drawn) [Example 251, 1-{1-[6-methoxy-3′-(trifluoromethoxy)-1,1′-biphenyl-3-yl]-2-piperazin-1-ylethyl}cyclohexanol dihydrochloride] | 47
COc1ccc(C(CN2CCNCC2)C2(O)CCCCC2)cc1-c1ccc(Cl)c(Cl)c1 (stereo not drawn) [Example 252, 1-[1-(3′,4′-dichloro-6-methoxy-1,1′-biphenyl-3-yl)-2-piperazin-1-ylethyl]cyclohexanol dihydrochloride] | 35
COc1ccc(C(CN2CCNCC2)C2(O)CCCCC2)cc1-c1ccc(C(F)(F)F)cc1 (stereo not drawn) [Example 253, 1-{1-[6-methoxy-4′-(trifluoromethyl)-1,1′-biphenyl-3-yl]-2-piperazin-1-ylethyl}cyclohexanol dihydrochloride] | 19
COc1ccc(C(CN2CCNCC2)C2(O)CCCCC2)cc1-c1ccccc1 (stereo not drawn) [Example 254, 1-[1-(6-methoxy-1,1′-biphenyl-3-yl)-2-piperazin-1-ylethyl]cyclohexanol dihydrochloride] | 29
COc1ccc(C(CN2CCN(C)CC2)C2(O)CCCCC2)cc1-c1ccc(C(F)(F)F)cc1 (stereo not drawn) [Example 257, 1-[1-[6-methoxy-4′-(trifluoromethyl)-1,1′-biphenyl-3-yl]-2-(4-methylpiperazin-1-yl)ethyl]cyclohexanol dihydrochloride] | 17
OC1(C(CN2CCNCC2)c2ccc(OCc3ccccc3)c(C(F)(F)F)c2)CCCCC1 (stereo not drawn) [Example 263, 1-{1-[4-(benzyloxy)-3-(trifluoromethyl)phenyl]-2-piperazin-1-ylethyl}cyclohexanol dihydrochloride] | 31
CN1CCN(CC(c2ccc(OCc3ccccc3)c(C(F)(F)F)c2)C2(O)CCCCC2)CC1 (stereo not drawn) [Example 264, 1-[1-[4-(benzyloxy)-3-(trifluoromethyl)phenyl]-2-(4-methylpiperazin-1-yl)ethyl]cyclohexanol dihydrochloride] | 89
CN1CCN(CC(c2ccc(OCc3ccccc3)c(Br)c2)C2(O)CCCCC2)CC1 (stereo not drawn) [Example 265, 1-[1-[4-(benzyloxy)-3-bromophenyl]-2-(4-methylpiperazin-1-yl)ethyl]cyclohexanol dihydrochloride] | 44

Results, then the molecule that gave them:

inhibition at 1 µM [%] | Compound
91 | N#Cc1cc(C(CN2CCNCC2)C2(O)CCCCC2)ccc1OCc1ccccc1 (stereo not drawn) [Example 266, 2-(benzyloxy)-5-[1-(1-hydroxycyclohexyl)-2-piperazin-1-ylethyl]benzonitrile dihydrochloride]
89 | CN1CCN(CC(c2ccc(OCc3ccccc3)c(C#N)c2)C2(O)CCCCC2)CC1 (stereo not drawn) [Example 267, 2-(benzyloxy)-5-[1-(1-hydroxycyclohexyl)-2-(4-methylpiperazin-1-yl)ethyl]benzonitrile dihydrochloride]
84 | OC1(C(CN2CCNCC2)c2ccc(OCc3ccccc3)c(OC(F)(F)F)c2)CCCCC1 (stereo not drawn) [Example 268, 1-{1-[4-(benzyloxy)-3-(trifluoromethoxy)phenyl]-2-piperazin-1-ylethyl}cyclohexanol dihydrochloride]
20 | OC1(C(CN2CCN(Cc3ccc4c(c3)OCO4)CC2)c2ccc(OC(F)(F)F)cc2)CCCCC1 (stereo not drawn) [Example 285, 1-{2-[4-(1,3-benzodioxol-5-ylmethyl)piperazin-1-yl]-1-[4-(trifluoromethoxy)phenyl]ethyl}cyclohexanol dihydrochloride]
78.6 | OC1(C(CN2CCN(CC3CCCCC3)CC2)c2ccc(OC(F)(F)F)cc2)CCCCC1 (stereo not drawn) [Example 286, 1-{2-[4-(cyclohexylmethyl)piperazin-1-yl]-1-[4-(trifluoromethoxy)phenyl]ethyl}cyclohexanol dihydrochloride]
60.8 | CCN1CCN(CC(c2ccc(OC(F)(F)F)cc2)C2(O)CCCCC2)CC1 (stereo not drawn) [Example 287, 1-{2-(4-ethylpiperazin-1-yl)-1-[4-(trifluoromethoxy)phenyl]ethyl}cyclohexanol dihydrochloride]
77.6 | C[C@@H]1CN(CC(c2ccc(OC(F)(F)F)cc2)C2(O)CCCCC2)C[C@H](C)N1 (stereo partly drawn) [Example 288, 1-{2-[cis-3,5-dimethylpiperazin-1-yl]-1-[4(trifluoromethoxy)phenyl]ethyl}cyclohexanol dihydrochloride]
34 | OC1(C(CN2CCNCC2)c2ccc(-c3ccccc3F)cc2)CCCCC1 (stereo not drawn) [Example 289, 1-[1-(2′-fluoro-1,1′-biphenyl-4-yl)-2-piperazin-1-ylethyl]cyclohexanol dihydrochloride]
36 | N#Cc1ccccc1-c1ccc(C(CN2CCNCC2)C2(O)CCCCC2)cc1 (stereo not drawn) [Example 290, 4′-[1-(1-hydroxycyclohexyl)-2-piperazin-1-ylethyl]-1,1′-biphenyl-2-carbonitrile dihydrochloride]
40 | OC1(C(CN2CCNCC2)c2ccc(-c3cc(Cl)ccc3Cl)cc2)CCCCC1 (stereo not drawn) [Example 291, 1-[1-(2′,5′-dichloro-1,1′-biphenyl-4-yl)-2-piperazin-1-ylethyl]cyclohexanol dihydrochloride]
89 | OC1(C(CN2CCNCC2)c2ccc(OCc3ccccc3)c(Cl)c2)CCCCC1 (stereo not drawn) [Example 292, 1-{1-[4-(benzyloxy)-3-chlorophenyl]-2-piperazin-1-ylethyl}cyclohexanol dihydrochloride]
96 | CN1CCN(CC(c2ccc(OCc3ccccc3)c(Cl)c2)C2(O)CCCCC2)CC1 (stereo not drawn) [Example 293, 1-[1-[4-(benzyloxy)-3-chlorophenyl]-2-(4-methylpiperazin-1-yl)ethyl]cyclohexanol dihydrochloride]
13 | CN1CCN(CC(c2ccc(-c3ccc(Cl)c(Cl)c3)cc2)C2(O)CCC2)CC1 (stereo not drawn) [Example 296, 1-[1-(3′,4′-dichloro-1,1′-biphenyl-4-yl)-2-(4-methylpiperazin-1-yl)ethyl]cyclobutanol dihydrochloride]

same assay, conditions: 10 μM test compound (stated in the cell), [3H]NE uptake

Compound | inhibition at 10 µM [%]
COc1ccc(C(CN2CCN(C)CC2)C2(O)CCCCC2)cc1-c1ccc(Cl)c(Cl)c1 (stereo not drawn) [Example 255, 1-[1-(3′,4′-dichloro-6-methoxy-1,1′-biphenyl-3-yl)-2-(4-methylpiperazin-1-yl)ethyl]cyclohexanol dihydrochloride] | 70.7
COc1ccc(C(CN2CCN(C)CC2)C2(O)CCCCC2)cc1-c1cccc(OC(F)(F)F)c1 (stereo not drawn) [Example 256, 1-[1-[6-methoxy-3′-(trifluoromethoxy)-1,1′-biphenyl-3-yl]-2-(4-methylpiperazin-1-yl)ethyl]cyclohexanol dihydrochloride] | 72.8

Further lines, results first:

inhibition at 10 µM [%] | Compound
27.2 | CN1CCN(CC(c2ccc(-c3cccc(Cl)c3)cc2)C2(O)CCC2)CC1 (stereo not drawn) [Example 294, 1-[1-(3′-chloro-1,1′-biphenyl-4-yl)-2-(4-methylpiperazin-1-yl)ethyl]cyclobutanol dihydrochloride]
2 | CN1CCN(CC(c2ccc(-c3cccc(OC(F)(F)F)c3)cc2)C2(O)CCC2)CC1 (stereo not drawn) [Example 295, 1-{2-(4-methylpiperazin-1-yl)-1-[3′-(trifluoromethoxy)-1,1′-biphenyl-4-yl]ethyl}cyclobutanol dihydrochloride]

same assay, conditions: MDCK-Net6, read-out: % Inhibition @ 1 μM (hNET), 1 μM test compound, [3H]NE uptake

Compound | inhibition at 1 µM [%]
CN1CCN(CC(c2ccc(OC(F)(F)F)cc2)C2(O)CCCCC2)CC1 (stereo not drawn) [Example 283, 1-{2-(4-methylpiperazin-1-yl)-1-[4-(trifluoromethoxy)phenyl]ethyl}cyclohexanol dihydrochloride] | 70.7

— patent US7550456B2, “Substituted aryl cycloalkanoyl derivatives and methods of their use” (Wyeth, priority 2003, dated 2009)
